Where a SMILES comes first, the peptide text is derived from it. [ ]: non-standard residue; d: D form. The star is where a group is joined. NHCH2CH2OH = OCCN*; For = O=C*
Tests used:
[1] = test system: Streptococcus pyogenes SSI-9; assay: Antibacterial activity assay of bead-derived peptides (three concentrations); format: cell-based; parameters: key: +++: inhibition by the 640-fold diluted peptide solution; ++: inhibition by the 160-fold diluted solution; +: inhibition by the 40-fold diluted solution; -: no inhibition; conditions: S. pyogenes, bead-derived peptide solution, three concentrations
How it was run: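 Undiluted, 4-fold and 16-fold DMSO-diluted peptide stocks; S. pyogenes SSI-9, 2 × 10^5 CFU, cation-adjusted MHB (50 mg/L Ca2+, 25 mg/L Mg2+) + 5% laked horse blood; 37 °C, 18 h; readout = cell pellet visible or not.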

[2] = H+/Na+ transport assay of bead-derived peptides (one-point); format: biochemical; parameters: key: relative activity; mean of two control wells = 1.00; conditions: bead-derived peptide solution, EYPC/EYPG LUVs;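 also: relative to parent gramicidin A activity set to 1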
How it was run: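 H+/Na+ transport is monitored through pyranine fluorescence in freshly extruded LUVs after a 30-min room-temperature vortex with each library peptide at a single concentration. Signals are normalized to detergent (Triton X-100) and untreated controls.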

[3] = test system: P388 mouse leukemia cells; conditions: 92 h
How it was run: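 P388 cells at 1 × 10^4 cells/mL (final) were exposed to library peptides (stocks diluted 250-fold in RPMI1640/10% FBS) for 92 h at 37 °C, 5% CO2. Viable cells were counted by WST-1/1-methoxy PMS (4 h), absorbance 415 nm, and expressed as cell viability (%).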

| Compound | antibacterial activity [1] | H+/Na+ transport activity normalized against the value of 1 (1.00) [2] | cell viability/% [3] [%] |
| --- | --- | --- | --- |
| CNC(=O)C[C@@H](NC(=O)[C@@H](NC(=O)[C@@H](CC(C)C)NC(=O)[C@H](C)NC(=O)[C@H](NC(=O)[C@H](C)NC(=O)CNC(=O)[C@@H](NC=O)C(C)C)C(C)C)C(C)C)C(=O)N[C@@H](Cc1c[nH]c2ccccc12)C(=O)N[C@@H](C(=O)N[C@@H](Cc1c[nH]c2ccccc12)C(=O)N[C@@H](C(=O)N[C@@H](Cc1c[nH]c2ccccc12)C(=O)N[C@@H](C(=O)N[C@@H](Cc1c[nH]c2ccccc12)C(=O)NCCO)C(C)C)C(C)C)C(C)C [compound 12576] (For-VGA[dV]A[dL]V[dD](NHMe)W[dV]W[dV]W[dV]W-NHCH2CH2OH) | - | 1.09 | 100.0 |
| CC(C)C[C@@H](NC(=O)[C@H](Cc1c[nH]c2ccccc12)NC(=O)[C@H](NC(=O)[C@H](Cc1c[nH]c2ccccc12)NC(=O)[C@H](NC(=O)[C@H](Cc1c[nH]c2ccccc12)NC(=O)[C@H](NC(=O)[C@@H](NC(=O)[C@H](NC(=O)[C@H](C)NC(=O)[C@H](NC(=O)[C@H](C)NC(=O)CNC(=O)[C@@H](NC=O)C(C)C)C(C)C)[C@H](C)O)C(C)C)C(C)C)C(C)C)C(C)C)C(=O)N[C@@H](Cc1c[nH]c2ccccc12)C(=O)NCCO [compound 13062] (For-VGA[dV]A[dT]V[dV]W[dV]W[dV]W[dL]W-NHCH2CH2OH) | - | 1.06 | 92.8 |
| CNC(=O)C[C@@H](NC(=O)[C@H](Cc1c[nH]c2ccccc12)NC(=O)[C@@H](CC(C)C)NC(=O)[C@H](Cc1c[nH]c2ccccc12)NC(=O)[C@H](NC(=O)[C@H](Cc1c[nH]c2ccccc12)NC(=O)[C@@H](CC(C)C)NC(=O)[C@@H](NC(=O)[C@H](NC(=O)[C@H](C)NC(=O)[C@@H](CC(C)C)NC(=O)[C@H](C)NC(=O)CNC(=O)[C@@H](NC=O)C(C)C)C(C)C)C(C)C)C(C)C)C(=O)N[C@@H](Cc1c[nH]c2ccccc12)C(=O)NCCO [compound 5302] (For-VGA[dL]A[dV]V[dL]W[dV]W[dL]W[dD](NHMe)W-NHCH2CH2OH) | - | 1.37 | 100.0 |
| CNC(=O)C[C@@H](NC(=O)[C@@H](NC(=O)[C@@H](CC(C)C)NC(=O)[C@H](C)NC(=O)[C@H](NC(=O)[C@H](C)NC(=O)CNC(=O)[C@@H](NC=O)C(C)C)C(C)C)C(C)C)C(=O)N[C@@H](Cc1c[nH]c2ccccc12)C(=O)N[C@H](CC(C)C)C(=O)N[C@@H](Cc1c[nH]c2ccccc12)C(=O)N[C@H](CC(C)C)C(=O)N[C@@H](Cc1c[nH]c2ccccc12)C(=O)N[C@@H](C(=O)N[C@@H](Cc1c[nH]c2ccccc12)C(=O)NCCO)C(C)C [compound 6360] (For-VGA[dV]A[dL]V[dD](NHMe)W[dL]W[dL]W[dV]W-NHCH2CH2OH) | - | 1.03 | 67.2 |
| CC(C)C[C@@H](NC(=O)[C@H](C)NC(=O)CNC(=O)[C@@H](NC=O)C(C)C)C(=O)N[C@@H](C)C(=O)N[C@@H](C(=O)N[C@H](C(=O)N[C@H](CC(C)C)C(=O)N[C@@H](Cc1c[nH]c2ccccc12)C(=O)N[C@H](CC(C)C)C(=O)N[C@@H](Cc1c[nH]c2ccccc12)C(=O)N[C@@H](C(=O)N[C@@H](Cc1c[nH]c2ccccc12)C(=O)N[C@H](CC(C)C)C(=O)N[C@@H](Cc1c[nH]c2ccccc12)C(=O)NCCO)C(C)C)C(C)C)C(C)C [compound 7191] (For-VGA[dL]A[dV]V[dL]W[dL]W[dV]W[dL]W-NHCH2CH2OH) | + | 1.15 | 0.0 |
| CC(C)C[C@@H](NC(=O)[C@H](C)NC(=O)CNC(=O)[C@@H](NC=O)C(C)C)C(=O)N[C@@H](C)C(=O)N[C@H](CC(C)C)C(=O)N[C@H](C(=O)N[C@H](CC(C)C)C(=O)N[C@@H](Cc1c[nH]c2ccccc12)C(=O)N[C@@H](C(=O)N[C@@H](Cc1c[nH]c2ccccc12)C(=O)N[C@@H](C(=O)N[C@@H](Cc1c[nH]c2ccccc12)C(=O)N[C@@H](C(=O)N[C@@H](Cc1c[nH]c2ccccc12)C(=O)NCCO)C(C)C)C(C)C)[C@H](C)O)C(C)C [compound 5996] (For-VGA[dL]A[dL]V[dL]W[dT]W[dV]W[dV]W-NHCH2CH2OH) | - | 1.08 | 78.7 |
| CNC(=O)C[C@@H](NC(=O)[C@@H](NC(=O)[C@@H](CC(C)C)NC(=O)[C@H](C)NC(=O)[C@@H](CC(C)C)NC(=O)[C@H](C)NC(=O)CNC(=O)[C@@H](NC=O)C(C)C)C(C)C)C(=O)N[C@@H](Cc1c[nH]c2ccccc12)C(=O)N[C@H](CC(C)C)C(=O)N[C@@H](Cc1c[nH]c2ccccc12)C(=O)N[C@@H](C(=O)N[C@@H](Cc1c[nH]c2ccccc12)C(=O)N[C@H](CC(C)C)C(=O)N[C@@H](Cc1c[nH]c2ccccc12)C(=O)NCCO)C(C)C [compound 1479] (For-VGA[dL]A[dL]V[dD](NHMe)W[dL]W[dV]W[dL]W-NHCH2CH2OH) | - | 1.19 | 100.0 |
| CNC(=O)C[C@@H](NC(=O)[C@@H](NC(=O)[C@H](NC(=O)[C@H](C)NC(=O)[C@H](NC(=O)[C@H](C)NC(=O)CNC(=O)[C@@H](NC=O)C(C)C)C(C)C)C(C)C)C(C)C)C(=O)N[C@@H](Cc1c[nH]c2ccccc12)C(=O)N[C@H](CC(C)C)C(=O)N[C@@H](Cc1c[nH]c2ccccc12)C(=O)N[C@H](CC(C)C)C(=O)N[C@@H](Cc1c[nH]c2ccccc12)C(=O)N[C@H](CC(C)C)C(=O)N[C@@H](Cc1c[nH]c2ccccc12)C(=O)NCCO [compound 2218] (For-VGA[dV]A[dV]V[dD](NHMe)W[dL]W[dL]W[dL]W-NHCH2CH2OH) | - | 1.32 | 100.0 |
| CC(C)C[C@@H](NC(=O)[C@H](Cc1c[nH]c2ccccc12)NC(=O)[C@@H](CC(C)C)NC(=O)[C@@H](NC(=O)[C@H](NC(=O)[C@H](C)NC(=O)[C@H](NC(=O)[C@H](C)NC(=O)CNC(=O)[C@@H](NC=O)C(C)C)C(C)C)C(C)C)C(C)C)C(=O)N[C@@H](Cc1c[nH]c2ccccc12)C(=O)N[C@@H](C(=O)N[C@@H](Cc1c[nH]c2ccccc12)C(=O)N[C@@H](C(=O)N[C@@H](Cc1c[nH]c2ccccc12)C(=O)NCCO)C(C)C)C(C)C [compound 8969] (For-VGA[dV]A[dV]V[dL]W[dL]W[dV]W[dV]W-NHCH2CH2OH) | - | 1.09 | 8.7 |
| CC(C)C[C@@H](NC(=O)[C@H](C)NC(=O)CNC(=O)[C@@H](NC=O)C(C)C)C(=O)N[C@@H](C)C(=O)N[C@@H](C(=O)N[C@H](C(=O)N[C@@H](C(=O)N[C@@H](Cc1c[nH]c2ccccc12)C(=O)N[C@@H](C(=O)N[C@@H](Cc1c[nH]c2ccccc12)C(=O)N[C@H](CC(C)C)C(=O)N[C@@H](Cc1c[nH]c2ccccc12)C(=O)N[C@H](CC(C)C)C(=O)N[C@@H](Cc1c[nH]c2ccccc12)C(=O)NCCO)C(C)C)[C@H](C)O)C(C)C)C(C)C [compound 5482] (For-VGA[dL]A[dV]V[dT]W[dV]W[dL]W[dL]W-NHCH2CH2OH) | - | 1.25 | 100.0 |
| CNC(=O)C[C@@H](NC(=O)[C@H](Cc1c[nH]c2ccccc12)NC(=O)[C@@H](CC(C)C)NC(=O)[C@H](Cc1c[nH]c2ccccc12)NC(=O)[C@H](NC(=O)[C@H](Cc1c[nH]c2ccccc12)NC(=O)[C@H](NC(=O)[C@@H](NC(=O)[C@@H](CC(C)C)NC(=O)[C@H](C)NC(=O)[C@H](NC(=O)[C@H](C)NC(=O)CNC(=O)[C@@H](NC=O)C(C)C)C(C)C)C(C)C)C(C)C)C(C)C)C(=O)N[C@@H](Cc1c[nH]c2ccccc12)C(=O)NCCO [compound 13317] (For-VGA[dV]A[dL]V[dV]W[dV]W[dL]W[dD](NHMe)W-NHCH2CH2OH) | - | 1.04 | 100.0 |
| CC(C)C[C@@H](NC(=O)[C@H](C)NC(=O)[C@H](NC(=O)[C@H](C)NC(=O)CNC(=O)[C@@H](NC=O)C(C)C)C(C)C)C(=O)N[C@H](C(=O)N[C@@H](C(=O)N[C@@H](Cc1c[nH]c2ccccc12)C(=O)N[C@@H](C(=O)N[C@@H](Cc1c[nH]c2ccccc12)C(=O)N[C@H](CC(C)C)C(=O)N[C@@H](Cc1c[nH]c2ccccc12)C(=O)N[C@@H](C(=O)N[C@@H](Cc1c[nH]c2ccccc12)C(=O)NCCO)[C@H](C)O)C(C)C)C(C)C)C(C)C [compound 8731] (For-VGA[dV]A[dL]V[dV]W[dV]W[dL]W[dT]W-NHCH2CH2OH) | - | 1.05 | 71.2 |
| CNC(=O)C[C@@H](NC(=O)[C@H](Cc1c[nH]c2ccccc12)NC(=O)[C@H](NC(=O)[C@H](Cc1c[nH]c2ccccc12)NC(=O)[C@H](NC(=O)[C@H](Cc1c[nH]c2ccccc12)NC(=O)[C@@H](CC(C)C)NC(=O)[C@@H](NC(=O)[C@H](NC(=O)[C@H](C)NC(=O)[C@H](NC(=O)[C@H](C)NC(=O)CNC(=O)[C@@H](NC=O)C(C)C)C(C)C)C(C)C)C(C)C)C(C)C)C(C)C)C(=O)N[C@@H](Cc1c[nH]c2ccccc12)C(=O)NCCO [compound 5604] (For-VGA[dV]A[dV]V[dL]W[dV]W[dV]W[dD](NHMe)W-NHCH2CH2OH) | - | 1.03 | 69.7 |
